Results taken from paper PMC4849045, “Hepatoprotective Limonoids from Andiroba (Carapa guianensis)” (International Journal of Molecular Sciences, 2016).
Where two headings read alike, the source gives them in different places.

Tests used:
L929 cells = assay: TNF-α-induced cytotoxicity in L929 cells (MTT assay); type: cell-based; conditions: Mus musculus; for inhibition at 1 µM / inhibition at 3 µM / inhibition at 10 µM / inhibition at 30 µM: read-out: Inhibition (%) of TNF-α-induced cytotoxicity; for IC50: read-out: IC50, inhibition of TNF-α-induced decrease in cell viability
Description: The effects of the limonoids (1–17) on the sensitivity of hepatocytes to TNF-α were assessed by measuring TNF-α-induced decreases in the viability of L929 cells, a TNF-α-sensitive cell line, by using the MTT assay. In the absence of a test sample, the cells incubated with 1 ng/mL TNF-α for 44 h were compared with those not incubated with TNF-α.
Assay for the TNF-α-induced cytotoxicity in L929 cells was performed as described previously. Silybin was used as a reference compound [36].

[1] = test system: primary cultured mouse hepatocytes; assay: D-GalN-induced cytotoxicity in primary cultured mouse hepatocytes (MTT assay); conditions: Hepatocyte, read-out: Inhibition (%) of D-GalN-induced cytotoxicity
Description: Assay for the D-GalN-induced cytotoxicity in primary cultured mouse hepatocytes was performed as described previously [33, 35, 36].

[2] = Cell viability of LPS-treated mouse peritoneal macrophages (MTT assay); type: cell-based
[3] = test system: LPS-activated NO production in mouse peritoneal macrophages; assay: LPS-induced NO production in mouse peritoneal macrophages; type: cell-based; conditions: Peritoneal macrophage; for inhibition at 3 µM / inhibition at 10 µM / inhibition at 30 µM / inhibition at 100 µM: read-out: Inhibition (%) of LPS-activated NO production; for IC50: read-out: IC50, inhibition of LPS-activated NO production
Description: The effects of limonoids (1–17) on NO production were examined to provide an estimation of macrophage activation levels in LPS-treated mouse peritoneal macrophages.
Assay for NO production in TGC-induced mouse peritoneal macrophages was performed as described previously. N^G-Monomethyl-L-arginine (L-NMMA) and caffeic acid phenethyl ester (CAPE) were used as reference compounds [33, 36].

[4] = L929, 1 µM, 1 ng/mL TNF-α, 44 h, mean ± S.E.M. (n = 4)
[5] = L929, 3 µM, 1 ng/mL TNF-α, 44 h, mean ± S.E.M. (n = 4)
[6] = L929, 10 µM, 1 ng/mL TNF-α, 44 h, mean ± S.E.M. (n = 4)
[7] = L929, 30 µM, 1 ng/mL TNF-α, 44 h, mean ± S.E.M. (n = 4)
[8] = LPS-treated TGC-induced mouse peritoneal macrophages, 3 µM, mean ± S.E.M. (n = 4), read-out: cell viability (%) in MTT assay (values in parentheses) (converted)
[9] = LPS-treated TGC-induced mouse peritoneal macrophages, 10 µM, mean ± S.E.M. (n = 4), read-out: cell viability (%) in MTT assay (values in parentheses) (converted)
[10] = LPS-treated TGC-induced mouse peritoneal macrophages, 30 µM, mean ± S.E.M. (n = 4), read-out: cell viability (%) in MTT assay (values in parentheses) (converted)
[11] = LPS-treated TGC-induced mouse peritoneal macrophages, 100 µM, mean ± S.E.M. (n = 4), # = cytotoxic effects were observed, read-out: cell viability (%) in MTT assay (values in parentheses) (converted)
[12] = Mus musculus, 3 µM, mean ± S.E.M. (n = 4)
[13] = Mus musculus, 10 µM, mean ± S.E.M. (n = 4)
[14] = Mus musculus, 30 µM, mean ± S.E.M. (n = 4)
[15] = Mus musculus, 100 µM, mean ± S.E.M. (n = 4)
[16] = L929 cells, 1 ng/mL TNF-α, 44 h
[17] = 3 µM, mean ± S.E.M. (n = 4), read-out: cell viability (%) in MTT assay (values in parentheses) (converted)
[18] = 10 µM, mean ± S.E.M. (n = 4), read-out: cell viability (%) in MTT assay (values in parentheses) (converted)
[19] = 30 µM, mean ± S.E.M. (n = 4), read-out: cell viability (%) in MTT assay (values in parentheses) (converted)
[20] = 100 µM, mean ± S.E.M. (n = 4), # = cytotoxic effects were observed, read-out: cell viability (%) in MTT assay (values in parentheses) (converted)

| IC50 ([3]; mouse peritoneal macrophages) [µM] | SMILES | inhibition at 3 µM (L929 cells; [5]) [%] | inhibition at 10 µM (L929 cells; [6]) [%] | inhibition at 30 µM (L929 cells; [7]) [%] | inhibition at 3 µM [1] [%] | inhibition at 10 µM [1] [%] | inhibition at 30 µM [1] [%] | inhibition at 100 µM [1] [%] | viability at 3 µM [2, 8] [%] | viability at 10 µM [2, 9] [%] | viability at 30 µM [2, 10] [%] | viability at 100 µM [2, 11] [%] | inhibition at 3 µM [3, 12] [%] | inhibition at 10 µM [3, 13] [%] | inhibition at 30 µM [3, 14] [%] | inhibition at 100 µM [3, 15] [%] | IC50 ([3]; Mus musculus) [µM] | inhibition at 3 µM ([3]; Mus musculus) [%] | inhibition at 10 µM ([3]; Mus musculus) [%] | inhibition at 30 µM ([3]; Mus musculus) [%] | also measured |
| --- | --- | --- | --- | --- | --- | --- | --- | --- | --- | --- | --- | --- | --- | --- | --- | --- | --- | --- | --- | --- | --- |
| 9.4 | CC(=O)O[C@@H]1C2C(C)(C)C(=O)C=C[C@]2(C)C2CC[C@@]3(C)[C@H](c4ccoc4)OC(=O)[C@H]4O[C@]43[C@]2(C)[C@@H]1O (stereo partly shown) [compound 5, andirolide H] | -0.7 ± 1.2 | 7.6 ± 1.1 | 39.2 ± 1.7 | -6.2 ± 2.6 | -9 ± 0.5 | -9.2 ± 0.8 | -0.6 ± 0.8 | 99.8 | 104 | 109 | 4.9 | 5.8 ± 6.1 | 63.9 ± 3 | 97.2 ± 0.9 | 99.7 ± 0.5 |  |  |  |  | inhibition at 1 µM (L929 cells; [4]): -6.6 ± 3.6% |
| > 100 | CCC(C)C(=O)OC1C2(OC(C)=O)CC3(O)C4=CC(=O)OC(c5ccoc5)C4(C)CCC3C(C)(C2=O)C(CC(=O)OC)C1(C)C (stereo not shown) [compound 10, Carapanolide C] | 14.2 ± 3.2 | 27.7 ± 4.3 | 54.5 ± 5.5 | 8 ± 4.3 | 3.4 ± 4.2 | 6.7 ± 2.1 | -7.7 ± 4.4 | 96 | 98.9 | 91.8 | 80 | 4.2 ± 8.8 | 20.8 ± 5 | 20.2 ± 4.9 | 13.2 ± 1.9 |  |  |  |  | inhibition at 1 µM (L929 cells; [4]): 4.9 ± 2.1%; IC50 (L929 cells; [16]): 27 µM |
|  | CC(=O)O[C@@H]1CC2C(C)(C)C(=O)C=C[C@]2(C)C2CC[C@]3(C)C(=CC(=O)[C@@]3(O)c3ccoc3)[C@@]21C (stereo partly drawn) [compound 9, 17β-hydroxyazadiradione] |  |  |  | 15.3 ± 2.3 | -4.1 ± 1.2 | -7.5 ± 1.4 | -7.5 ± 4 |  |  |  |  |  |  |  |  | 20.3 | -10.4 ± 6.8 | 9.4 ± 7.1 | 65.1 ± 4.5 | inhibition at 1 µM (L929 cells; L929, 44 h): 14.1 ± 3.4%; inhibition at 3 µM (L929 cells; L929, 44 h): 23.9 ± 3.9%; inhibition at 10 µM (L929 cells; L929, 44 h): 64 ± 3.3%; inhibition at 30 µM (L929 cells; L929, 44 h): 91.3 ± 8.2%; IC50 (L929 cells; [16]): 6.9 µM; viability at 3 µM [2]: 95.4%; viability at 10 µM [2]: 94.4 ± 14.1%; viability at 30 µM [2]: 94.8%; viability at 100 µM [2]: 84.8%; inhibition at 100 µM ([3]; Mus musculus): 97.4 ± 0.7% |
|  | CCC(=O)OC1C2(O)C(OC(C)=O)C3(C)CC24OC2(C)OC15C1CC(=O)OC(c6ccoc6)C1(C)C(OC(C)=O)CC5(O2)C4(C)C3C(OC(C)=O)C(=O)OC (stereo not shown) [compound 14, Carapanolide Q] | 8.6 ± 4.4 | 1.3 ± 4.2 | 9.2 ± 2.5 | 2.7 ± 1.9 | -3.5 ± 2.9 | -2.5 ± 2.1 | -6.2 ± 1.7 | 99.8 | 96.3 | 95.5 | 116 |  |  |  |  | 38 | 1.9 ± 0.7 | 14.4 ± 2.2 | 44.3 ± 1.1 | inhibition at 100 µM ([3]; Mus musculus): 75.3 ± 3.5% |
|  | CCC(=O)OC1C2(O)C(OC(C)=O)C3(C)CC24OC2(C)OC15C1CC(=O)OC(c6ccoc6)C1(C)C(OC(C)=O)C(O)C5(O2)C4(C)C3CC(=O)OC (stereo not shown) [compound 13, Carapanolide M] | -1.5 ± 7.1 | 7 ± 4.4 | -5.1 ± 6.2 | -7 ± 0.5 | -7.3 ± 0.7 | 1 ± 0.4 | -9.9 ± 1 |  |  |  |  |  |  |  |  | 41.6 | -1.1 ± 2.7 | 3.2 ± 2.8 | 30.3 ± 3.1 | viability at 3 µM [2, 17]: 99.2%; viability at 10 µM [2, 18]: 95.1%; viability at 30 µM [2, 19]: 94.2%; viability at 100 µM [2, 20]: 112%; inhibition at 100 µM ([3]; Mus musculus): 85.1 ± 1.5% |
| > 100 | COC(=O)CC1C(C)C(=O)C2(CC3(O)C4CC(=O)OC(c5ccoc5)C4(C)CCC3(O)O2)C(OC(=O)C(C)C)C1(C)C (stereo not shown) [compound 17, carapanolide A] | 8.8 ± 6.5 | 21.5 ± 5.5 | 58.2 ± 4.7 | -6.8 ± 1.2 | -8.3 ± 0.7 | -4.5 ± 0.6 | -7 ± 0.6 | 103 | 104 | 110 | 91.3 | -0.6 ± 2.1 | 1.2 ± 2 | 41.1 ± 1 | 4.9 ± 1.8 |  |  |  |  | IC50 (L929 cells; [16]): 25.3 µM |
|  | CCC(=O)OC1C2(OC(C)=O)C(OC(C)=O)C3(C)CC24OC2(C)OC15C(CC(=O)OC)C1(C)CC(c6occc6C1=O)C5(O2)C41COC(=O)CC31 (stereo not shown) [compound 16, guianolide A] | -6.2 ± 5.2 | -4.5 ± 1.9 | -7.3 ± 3 | 9.2 ± 4.2 | 11 ± 5.3 | 9.8 ± 2.8 | 23.5 ± 3.5 | 96.9 | 102 | 98.7 | 106 |  |  |  |  | 77.9 | 1.9 ± 3.2 | 3.2 ± 1.4 | 12.7 ± 1.6 | inhibition at 100 µM ([3]; Mus musculus): 71.3 ± 3.2% |

| SMILES | IC50 ([3]; mouse peritoneal macrophages) [µM] | inhibition at 3 µM (L929 cells; [5]) [%] | inhibition at 10 µM (L929 cells; [6]) [%] | inhibition at 30 µM (L929 cells; [7]) [%] | inhibition at 3 µM [1] [%] | inhibition at 10 µM [1] [%] | inhibition at 30 µM [1] [%] | inhibition at 100 µM [1] [%] | viability at 3 µM [2, 8] [%] | viability at 10 µM [2, 9] [%] | viability at 30 µM [2, 10] [%] | viability at 100 µM [2, 11] [%] | inhibition at 3 µM [3, 12] [%] | inhibition at 10 µM [3, 13] [%] | inhibition at 30 µM [3, 14] [%] | inhibition at 100 µM [3, 15] [%] | IC50 ([3]; Mus musculus) [µM] | inhibition at 3 µM ([3]; Mus musculus) [%] | inhibition at 10 µM ([3]; Mus musculus) [%] | inhibition at 30 µM ([3]; Mus musculus) [%] | also measured |
| --- | --- | --- | --- | --- | --- | --- | --- | --- | --- | --- | --- | --- | --- | --- | --- | --- | --- | --- | --- | --- | --- |
| COC(=O)C(OC(C)=O)C1C2(C)CC34OC5(C)OC6(C7CC(=O)OC(c8ccoc8)C7(C)C(OC(C)=O)C(O)C6(O5)C13C)C(OC(=O)C(C)C)C4(O)C2OC(C)=O (stereo not shown) [compound 15, Carapanolide O] | 46 |  |  |  | 7.5 ± 3.9 | -5.3 ± 5.6 | -5.2 ± 3.9 | -2.1 ± 1.7 |  |  |  |  | -2.5 ± 5.4 | 14.7 ± 8.2 | 6.9 ± 5 | 102 ± 3.2 |  |  |  |  | inhibition at 3 µM (L929 cells; L929, 44 h): 6.3 ± 4.3%; inhibition at 10 µM (L929 cells; L929, 44 h): 1 ± 6.4%; inhibition at 30 µM (L929 cells; L929, 44 h): 1.5 ± 4.1%; viability at 3 µM [2, 17]: 104%; viability at 10 µM [2, 18]: 108%; viability at 30 µM [2, 19]: 107%; viability at 100 µM [2, 20]: 109% |
| CC(=O)O[C@@H]1C[C@H]2C(C)(C)C(=O)C=C[C@]2(C)[C@H]2CC[C@@]3(C)[C@H](c4ccoc4)C(=O)[C@H]4O[C@]43[C@@]21C [compound 8, epoxyazadiradione] | 8.2 |  |  |  | -3.1 ± 8.9 | -2.2 ± 2.5 | -10.8 ± 0.6 | -11.9 ± 0.3 |  |  |  |  | 10.5 ± 0.9 | 56 ± 4 | 103 ± 4 | 112.3 ± 0.7 |  |  |  |  | IC50 (L929 cells; L929, 44 h): 10.2 µM; inhibition at 3 µM (L929 cells; L929, 44 h): 13.7 ± 3.9%; inhibition at 10 µM (L929 cells; L929, 44 h): 39.1 ± 6.5%; inhibition at 30 µM (L929 cells; L929, 44 h): 91.5 ± 11.4%; viability at 3 µM [2, 17]: 99.6%; viability at 10 µM [2, 18]: 94.8%; viability at 30 µM [2, 19]: 81.9%; viability at 100 µM [2, 20]: 10% |
